# How the values were obtained:
# Bax = Bax activation assay in MCF-7 cells; format: cell-based, human; details: for Bax Fold change: vs untreated control
# Description: Compounds10k and 10l were tested as caspases-3, 8, 9, Bax and p53 activators and as down-regulators of the anti-apoptotic protein Bcl2 against the MCF-7 breast cancer cell line.[41] Appendix A gives more details.
# The Bcl-2 protein family, which includes pro-apoptotic proteins (Bax) and anti-apoptotic proteins (Bcl-2), primarily regulates apoptosis.[46] […] Consequently, we assessed the expression levels of Bcl-2 and Bax proteins in MCF-7 breast cancer cells treated with compounds 10k and 10l, Table 6. […]
# Cells were obtained from American Type Culture Collection, cells were grown in RPMI 1640 containing 10% fetal bovine serum at 37°C, stimulated with the compounds to be tested for caspase 8/9, and lysed with Cell Extraction Buffer. This lysate was diluted in Standard Diluent Buffer over the range of the assay and measured for human active caspase-8/9 content. (Cells are Plated in a density of 1.2 – 1.8 × 10,000 cells/well in a volume of 100µl complete growth medium + 100 ul of the tested compound per well in a 96-well plate for 24 hours before the enzyme assay). […]
# 4.2.7. Bax activation assay
# Bring all reagents, except the human Bax-α Standard, to room temperature for at least 30 minutes prior to opening. The human Bax-α Standard solution should not be left at room temperature for more than 10 minutes. All standards, controls and samples should be run in duplicate. Refer to the Assay Layout Sheet to determine the number of wells to be used and put any remaining wells with the desiccant back into the pouch and seal the ziploc. Store unused wells at 4 °C. Pipet 100 μL of Assay Buffer into the S0 (0 pg/mL standard) wells. Pipet 100 μL of Standards #1 through #6 into the appropriate wells. Pipet 100 μL of the Samples into the appropriate wells. Tap the plate gently to mix the contents. Seal the plate and incubate at room temperature on a plate shaker for 1 hour at ~500 rpm. Empty the contents of the wells and wash by adding 400 μL of wash solution to every well. Repeat the wash 4 more times for a total of 5 washes. After the final wash, empty or aspirate the wells and firmly tap the plate on a lint free paper towel to remove any remaining wash buffer.
# Pipet 100 μL of yellow Antibody into each well, except the Blank. Seal the plate and incubate at room temperature on a plate shaker for 1 hour at ~500 rpm. Empty the contents of the wells and wash by adding 400 μL of wash solution to every well. Repeat the wash 4 more times for a total of 5 washes. […]
# Pipet 100 μL of Substrate Solution into each well. […] Blank the plate reader against the Blank wells, read the optical density at 450 nm. […]
# The concentration of Bax in the unknowns can be determined by interpolation. […]
# [1] = system: Panc-1 (pancreatic cancer); experiment: Antiproliferative assay, Panc-1; format: cell-based; details: Homo sapiens; Panc-1 pancreatic cancer cells; read-out: Antiproliferative activity IC50 ± SEM, Panc-1
# Text: The dose–response experiments established the IC50 values for the new compounds. The given findings were obtained from at least two distinct studies, each comprising three repeats per concentration. Appendix A (SI File) provides experimental details.[38,39]
# The MTT assay[43] was utilized to assess the antiproliferative effects of compounds 10a–l on four human cancer cell lines: HT-29 (colon cancer), Panc-1 (pancreatic cancer), A-549 (lung cancer), and MCF-7 (breast cancer). […]
# 4.2.2. Assay for antiproliferative effect
# To explore the antiproliferative potential of compounds propidium iodide fluorescence assay was performed using different cell lines such as Panc-1 (pancreas cancer cell line), MCF-7 (breast cancer cell line), HT-29 (colon cancer cell line) and A-549 (epithelial cancer cell line), respectively. To calculate the total nuclear DNA, a fluorescent dye (propidium iodide, PI) is used which can attach to the DNA, thus offering a quick and precise technique. PI cannot pass through the cell membrane and its signal intensity can be considered as directly proportional to quantity of cellular DNA. Cells whose cell membranes are damaged or have changed permeability are counted as dead ones. The assay was performed by seeding the cells of different cell lines at a density of 3000-7500 cells/well (in 200μl medium) in culture plates followed by incubation for 24h at 37 °C in humidified 5%CO2/95% air atmospheric conditions. The medium was removed; the compounds were added to the plates at 10 μM concentrations (in 0.1% DMSO) in triplicates, followed by incubation for 48h. DMSO (0.1%) was used as control. After incubation, medium was removed followed by the addition of PI (25 μl, 50μg/mL in water/medium) to each well of the plates. At - 80 °C, the plates were allowed to freeze for 24 h, followed by thawing at 25 °C. A fluorometer (Polar-Star BMG Tech) was used to record the readings at excitation and emission wavelengths of 530 and 620 nm for each well. The percentage cytotoxicity of compounds was calculated using […]
# Where ATC= Absorbance of treated cells and AC= Absorbance of control. Erlotinib was used as positive control in the assay. […]
IC50 [1],SMILES,Bax (Bax),Bax Fold change (Bax)
22 ± 1 nM,"COc1ccc(-c2nc(SCc3nc(-c4ccc(Cl)cc4)no3)[nH]c(=O)c2C#N)cc1 [Compound 10k, 2-(((3-(4-Chlorophenyl)-1,2,4-oxadiazol-5-yl)methyl)thio)-4-(4-methoxyphenyl)-6-oxo-1,6-dihydropyrimidine-5-carbonitrile]",545 ± 3 pg/mL,9 fold
26 ± 1 nM,"COc1ccc(-c2noc(CSc3nc(-c4ccc(OC)cc4)c(C#N)c(=O)[nH]3)n2)cc1 [Compound 10l, 2-(((3-(4-Methoxyphenyl)-1,2,4-oxadiazol-5-yl)methyl)thio)-4-(4-methoxyphenyl)-6-oxo-1,6-dihydropyrimidine-5-carbonitrile]",505 ± 3 pg/mL,8 fold
